These results are taken from patent US20140056960A1, “Methods for Improving Fracture Healing and Bone Formation” (Imperial Innovations Limited, priority 2010, published 2014).

Substitutions are numbered along the chain they refer to. Entries after “also recorded” stand apart in the source; their conditions may differ. Like-named read-outs stand apart in the source and are kept apart here.

In data set [1] the test system is human muscle-derived stromal cells. The conditions noted are these: cited from earlier work.
Data set [2] relates to tibial fracture. Put plainly: murine tibial fracture model: callus mineralization (microCT) and histology after local administration at fracture site. Type of data set: in vivo, mouse. The conditions noted are these: for fracture healing / callus mineralization: local, approx. 1 ng or 50 ng/kg (50 ng/ml, 20 microlitres PBS) at time of fracture and 24 hr later, day 28; for fracture healing / percentage callus mineralization: exogenous alarmin at fracture site days 0 and 1 (rmHMGB1 20 μL at 50 ng/ml), day 28 microCT. As to the method: Percentage callus mineralization was determined from the fracture site to 1 mm proximally (mean+/−SEM). FIG. 5. Dose response of exogenous TNF-α in vivo. 20 μL of PBS with rhTNF-α at the corresponding dose was injected at the fracture site at days 0 and 1 in C57BI/6 mice. At day 28, mice were harvested and limbs scanned by microCT in a blinded fashion. Percentage callus mineralization was determined from the fracture site to 1 mm proximally (threshold density of 350 mg/cm^3). * p<0.05, ** p<0.01. FIG. 7A. […] Percentage callus mineralization was determined from the fracture site to 1 mm proximally (mean+/−SEM). FIG. 18. […] C57BI6 mice were subjected to fracture model with addition of 20 μL of rmHMGB1 at 50 ng/ml at the fracture site at days 0 and 1 compared to controls. Addition of exogenous S100A8 or S100A9 or S100A8/9 had no effect, possibly because the fracture environment may already contain optimal amounts of S100 A8 or A9 proteins. All mice were harvested at day 28 and limbs scanned by microCT in a blinded fashion. Percentage callus mineralization was determined from the fracture site to 1 mm proximally (mean+/−SEM). […] Inflammation plays a vital role in early fracture repair^11,12. In murine models, TNF-α, IL-1 and IL-6 are expressed at the fracture site within 24 hours of injury^13,14. Biphasic expression of TNF-α and IL-1β appears to be linked to the initiation of fracture repair and later to endochondral maturation^14,15. In our murine model, callus mineralization at day 28 was enhanced when TNF-α, at a concentration of 50 ng/kg was injected locally following injury (day 0) and 24 hours later.

For data set [3], the system named is osteoporotic fracture. Put plainly: osteoporotic fracture repair in ovariectomised mice, callus mineralization by microCT. The class given is in vivo, mouse. The conditions noted are these: for percentage callus mineralization / fracture healing: day 14, 20 μL rhTNF-α 50 ng/ml immediately post fracture and 1 day later, vs PBS. As to the method: FIG. 6. Addition of exogenous TNF-α accelerates osteoporotic fracture repair in vivo. 20 μL of rhTNF-α at 50 ng/ml was injected at the fracture site immediately post fracture and 1 day later. Osteoporosis was induced by ovariectomising mice 4 weeks prior to surgery. (A). At day 14, mice were harvested and limbs scanned by microCT in a blinded fashion. […] At day 28 post fracture the percentage mineralised callus volume in the three groups (normal, those that had undergone oophorectomy and oophrectomised animals treated with TNF-α) were similar. […] (B).
We have investigated the effect of adding recombinant human TNF-α at the fracture site in mice rendered osteoporotic by oophorectomy 4 weeks previously.

Data set [4] has as its system tibial fracture. Description: murine tibial fracture model: callus mineralization (microCT) and histology after local administration at fracture site. Type of data set: in vivo, mouse.
For data set [5], the system named is rib fracture. The conditions noted are these: cited from earlier work.
Data set [6] concerns intramuscular bone-inducing implant. The conditions noted are these: daily intra-peritoneal administration; cited from earlier work.
For data set [7] the following is noted: human, in vivo, cited from earlier work.
Data set [8] has as its system bone marrow cells. Put plainly: TNF-α production by bone marrow cells from wild type, TLR-4 and MyD88 knockout mice. Type of data set: cell-based, mouse. The conditions noted are these: WT, TLR-4 and MyD88 knockout bone marrow cells. An excerpt: FIG. 11. TNF-α production by bone marrow cells from wild type (WT), TLR-4 and MyD88 knockout mice treated with murine S100A8.

For data set [9], the system named is PBMCs. Put plainly: TNF-α production by PBMCs (ELISA, 14 hours). The class given is cell-based, human. The conditions noted are these: for TNF-α production by PBMCs: PBMCs 1*10^5/ml, 10% FCS, alarmin at indicated doses. The method, then: FIG. 10. […] (A) PBMCs at 1*10^5/ml were incubated in 10% fetal calf serum (FCS) with S100 A8 at indicated doses. […] (B) PBMCs at 1*10^5/ml were incubated in 10% FCS with S100 A8 at 0.5 μg/ml with the addition of either antibody to TLR4, TLR2 or isotype controls (not shown), or sRAGE over 14 hours. TNF-α levels were determined by ELISA.
FIG. 12. […] PBMCs at 1*10^5/ml were incubated in 10% FCS with S100 A8, S100 A9 or S100 A12 at the indicated doses over 14 hours. TNF-α levels were determined by ELISA.
FIG. 17. […] PBMCs at 1*10^5/ml were incubated in 10% FCS with HMGB1 or LPS at the indicated doses over 14 hours; TNF-α levels were determined by ELISA.

As to “IL-1β: pro-inflammatory cytokine with some osteogenic activity in vitro”, the “bone nodule formation in vitro” value in data set [1] (cytokine alone, human specimens) is reported as “does not promote bone nodule formation”. Further, in [1] (human muscle-derived stromal cells), the alkaline phosphatase production entry was “increased alkaline phosphatase production”.
As for TNF-α, the entries for the “callus mineralization at day 28” value in [2] ("high" dose of 5-100 μg/kg) and in [2] ("low" dose of 50 pg/kg) were “significantly less callus mineralization” and “indistinguishable from the PBS only control”, respectively. Besides, in [2] (doses of 10 pg to 1 ng at fracture site (FIG. 5)), the “fracture healing compared to PBS control” value is “significantly accelerated healing”. The “fracture healing / callus mineralization” value in data set [2] is “effective in promoting bone formation and accelerating fracture healing; also recorded: enhanced; also recorded: significantly accelerated healing of the fracture”; in [2] (listed as rhTNF-α) it was “accelerate callus mineralization”. In addition, the “percentage callus mineralization / fracture healing” value is “significantly greater” in data set [3] and “significantly accelerated fracture healing” in data set [3] (listed as recombinant human TNF-α). For the same molecule, the “percentage mineralised callus volume” value in [3] (day 28 post fracture, normal vs oophorectomy vs oophorectomy + TNF-α) was “similar”. In addition, the “3D reconstructions of fracture site” value in data set [3] (rhTNF-α group vs PBS control) is “bridging of the fracture site with callus and ossification of the cartilaginous intermediary as well as remodelling of the ossified callus”. The “histology of tibial fracture” value in data set [4] (14 days post injury, local TNF-α 50 ng/kg body weight (1 ng/ml) in PBS) is “complete bridging of the fracture site by hard callus (bone) and remodelling of the fracture callus”. For the same molecule, the “effect at 10 fold increase beyond optimal range” value in data set [1] (10 ng/ml) is “significant diminution in effect”. Also, the “migration and osteogenic differentiation of MDSC” value in [1] is “can migrate and differentiate upon stimulation; also recorded: clear concentration dependency; also recorded: accelerates bone formation within a narrow therapeutic window and is inhibitory at high concentrations”. In addition, the “optimal in vitro dose” value in data set [1] was 0.1 to 1 ng/mL. Besides, the fracture healing entry in [5] (40 μg/kg/day) is “(non significant) improvement in fracture healing”; in data set [5] (daily intra-peritoneal 400 μg/kg) it was “impaired healing”. Besides, in [6], the “bone formation around implant” value is “inhibited bone formation”. For the same molecule, the results for the “adverse effect, highest doses administered repeatedly” value in data set [7] (sc) and in data set [7] were “minor local reactions” and “clinically insignificant thrombocytopaenia”, respectively. Further, the “single doses found safe” value in [7] is “up to 400 micrograms”.

B1: murine S100A8: murine alarmin S100A8 used on mouse bone marrow cells (protein, UniProt P27005 2-89, looked up)
Protein S100-A8: PSELEKALSNLIDVYHNYSNIQGNHHALYKNDFKKMVTTECPQFVQNINIENLFRELDINSDNAINFEEFLAMVIKVGVASHKDSHKE
Consider B1, for which the “receptor dependence of TNF-α production” value in data set [8] is “largely dependent on TLR-4 receptor and absolutely dependent on MyD88”.

B2: S100A9: alarmin (protein, UniProt P06702 1-114, looked up)
Protein S100-A9: MTCKMSQLERNIETIINTFHQYSVKLGHPDTLNQGEFKELVRKDLQNFLKKENKNEKVIEHIMEDLDTNADKQLSFEEFIMLMARLTWASHEKMHEGDEGPGHHHKPGLGEGTP
With B2, the “fracture healing / percentage callus mineralization” value in [2] is “no effect”. In addition, the entries for the “TNF-α production by PBMCs” value in data set [9] and in data set [9] (listed as S100 A9) were “much lower effect than S100A8” and “much less potent than S100 A8”, respectively.

B3: S100A8/9: alarmin (protein, UniProt P05109 1-93; P06702 1-114, looked up)
Protein S100-A8: MLTELEKALNSIIDVYHKYSLIKGNFHAVYRDDLKKLLETECPQYIRKKGADVWFKELDINTDGAVNFQEFLILVIKMGVAAHKKSHEESHKE
Protein S100-A9: B2 Protein S100-A9
As for B3, in data set [2], the “fracture healing / percentage callus mineralization” value was “no effect”. In [9], the “TNF-α production by PBMCs” value is reported as “no activity”.

B4: recombinant murine IL-10: an anti-inflammatory cytokine (protein, UniProt P18893 19-178, looked up)
Interleukin-10: SRGQYSREDNNCTHFPVGQSHMLLELRTAFSQVKTFFQTKDQLDNILLTDSLMQDFKGYLGCQALSEMIQFYLVEVMPQAEKHGPEIKEHLNSLGEKLKTLRMRLRRCHRFLPCENKSKAVEQVKSDFNKLQDQGVYKAMNEFDIFINCIEAYMMIKMKS
For the molecule B4, the “fracture healing as percentage mineralized callus volume” value in data set [4] (14 days post fracture, administered at fracture site) is “inhibition of fracture healing”.

B5: HMGB1: alarmin; highly purified HMGB-1 (protein, UniProt P09429 1-215, looked up)
High mobility group protein B1: MGKGDPKKPRGKMSSYAFFVQTCREEHKKKHPDASVNFSEFSKKCSERWKTMSAKEKGKFEDMAKADKARYEREMKTYIPPKGETKKKFKDPNAPKRPPSAFFLFCSEYRPKIKGEHPGLSIGDVAKKLGEMWNNTAADDKQPYEKKAAKLKEKYEKDIAAYRAKGKPDAAKKGVVKAEKSKKKKEEEEDEEDEEDEEEEEDEEDEDEEEDDDDE
For the molecule B5, in data set [2] (1 mg/ml at fracture site at days 0 and 1, 28 days post fracture), the fracture healing entry is “significantly (p=0.02) accelerated healing”. In addition, the “fracture healing / percentage callus mineralization” value in data set [2] is recorded as “accelerated healing; also recorded: accelerates fracture healing”. In addition, in data set [9] (HMGB1 and LPS at indicated doses), the “TNF-α production by PBMCs, HMGB1 with addition of LPS” value is reported as “synergistic effect”. Besides, the “TNF-α production by PBMCs” value was “not pro-inflammatory in isolation in vitro” in data set [9] and “did not lead to TNF-α production” in data set [9] (listed as HMGB-1).

B6: rmHMGB1: exogenous alarmin rmHMGB1 added locally at the fracture site (protein, UniProt P63158 1-215, looked up)
High mobility group protein B1: B5 High mobility group protein B1 with E189D, D202E
Consider B6, for which the “fracture healing / percentage callus mineralization” value in data set [2] is recorded as “accelerates fracture; also recorded: improves callus mineralisation”.
